Laboratory results from ChEMBL document CHEMBL1201862, “PubChem BioAssay data set” (2004).
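A five-concentration, 48-hour dose response in 96-well plates underlies each endpoint, interpolated linearly between surrounding concentrations. Abbreviation: GI50, concentration required for 50% inhibition of growth.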 Activity calls are given as the source filed them. Cut-off read from the data, not from the text of the source: active = GI50 up to about 1.1 µM and inactive = higher.

Legend:
Assay in all cases: NCI anticancer screen, dose series, 48 h
DU-145 = test system: DU-145
Hs-578T = test system: Hs-578T
786-0 = test system: 786-0
SW-620 = test system: SW-620
SR = test system: SR
KM12 = test system: KM12
HT-29 = test system: HT-29
HCT-15 = test system: HCT-15
LOX IMVI = test system: LOX IMVI
SK-OV-3 = test system: SK-OV-3
SK-MEL-5 = test system: SK-MEL-5
OVCAR-3 = test system: OVCAR-3
OVCAR-4 = test system: OVCAR-4
NCI-H226 = test system: NCI-H226
CCRF-CEM = test system: CCRF-CEM
SK-MEL-28 = test system: SK-MEL-28
M14 = test system: M14
SF-268 = test system: SF-268
MDA-N = test system: MDA-N
SF-295 = test system: SF-295
MDA-MB-435 = test system: MDA-MB-435
HCC 2998 = test system: HCC 2998
COLO 205 = test system: COLO 205
NCI-H460 = test system: NCI-H460
UO-31 = test system: UO-31
RPMI-8226 = test system: RPMI-8226
MCF7 = test system: MCF7
Malme-3M = test system: Malme-3M
BT-549 = test system: BT-549
ACHN = test system: ACHN
SNB-19 = test system: SNB-19
SNB-75 = test system: SNB-75
OVCAR-5 = test system: OVCAR-5
MOLT-4 = test system: MOLT-4
NCI/ADR-RES = test system: NCI/ADR-RES
CAKI-1 = test system: CAKI-1
NCI-H23 = test system: NCI-H23
SF-539 = test system: SF-539
HL-60 = test system: HL-60
PC-3 = test system: PC-3
SN12C = test system: SN12C
TK-10 = test system: TK-10
A549 = test system: A549
NCI-H522 = test system: NCI-H522
U-251 = test system: U-251
UACC-62 = test system: UACC-62
HCT-116 = test system: HCT-116
IGROV-1 = test system: IGROV-1
HOP-62 = test system: HOP-62
OVCAR-8 = test system: OVCAR-8
HOP-92 = test system: HOP-92
SK-MEL-2 = test system: SK-MEL-2
MDA-MB-231 = test system: MDA-MB-231
UACC-257 = test system: UACC-257
T47D = test system: T47D

For `CC[C@H](NC(=O)OC(C)(C)C)C(=O)NCP(=O)(OCc1ccc([N+](=O)[O-])cc1)OCc1ccc([N+](=O)[O-])cc1`, the GI50 (DU-145) was 31.6 µM (inactive), the GI50 (Hs-578T) was 37.2 µM (inactive) and the GI50 (786-0) was 92.9 µM (inactive). The GI50 (SW-620) was 40.6 µM (inactive), the GI50 (SR) was 26.9 µM (inactive) and the GI50 (KM12) was 26.8 µM (inactive). The GI50 (HT-29) was 17.7 µM (inactive), the GI50 (HCT-15) was 26.9 µM and the GI50 (LOX IMVI) was 32.4 µM (inactive). The GI50 (SK-OV-3) was 21.9 µM (inactive), the GI50 (SK-MEL-5) was 13.5 µM (inactive) and the GI50 (OVCAR-3) was 11 µM (inactive). The GI50 (OVCAR-4) was 25.1 µM (inactive), the GI50 (NCI-H226) was 39.4 µM (inactive) and the GI50 (CCRF-CEM) was 21.6 µM (inactive). The GI50 (SK-MEL-28) was 28.4 µM (inactive), the GI50 (M14) was 30.9 µM (inactive) and the GI50 (SF-268) was 40.6 µM (inactive). The GI50 (MDA-N) was 28.6 µM (inactive), the GI50 (SF-295) was 13.7 µM (inactive) and the GI50 (MDA-MB-435) was 34.9 µM (inactive). For the same compound, the GI50 (HCC 2998) was 36.2 µM (inactive), the GI50 (COLO 205) was 16.5 µM (inactive) and the GI50 (NCI-H460) was 27.8 µM (inactive). For the same compound, the GI50 (UO-31) was 14.8 µM (inactive), the GI50 (RPMI-8226) was 27.7 µM (inactive) and the GI50 (MCF7) was 48.9 µM (inactive). The GI50 (Malme-3M) was 53.5 µM (inactive), the GI50 (BT-549) was 31.7 µM (inactive) and the GI50 (ACHN) was 23 µM (inactive). The GI50 (SNB-19) was 43.1 µM (inactive), the GI50 (SNB-75) was 38.9 µM (inactive) and the GI50 (OVCAR-5) was 48.2 µM (inactive). For the same compound, the GI50 (MOLT-4) was 21.5 µM (inactive), the GI50 (NCI/ADR-RES) was 33.1 µM (inactive) and the GI50 (CAKI-1) was 43.2 µM (inactive). For the same compound, the GI50 (NCI-H23) was 41.3 µM (inactive), the GI50 (SF-539) was 31.8 µM (inactive) and the GI50 (HL-60) was 18.2 µM (inactive). For the same compound, the GI50 (PC-3) was 34.8 µM (inactive), the GI50 (SN12C) was 29.1 µM (inactive) and the GI50 (TK-10) was 30.6 µM (inactive). The GI50 (A549) was 27.7 µM (inactive), the GI50 (NCI-H522) was 31.6 µM (inactive) and the GI50 (U-251) was 21.6 µM (inactive). The GI50 (UACC-62) was 18.3 µM (inactive), the GI50 (HCT-116) was 27.7 µM (inactive) and the GI50 (IGROV-1) was 38.5 µM (inactive). For the same compound, the GI50 (HOP-62) was 38.4 µM (inactive), the GI50 (OVCAR-8) was 30.5 µM (inactive) and the GI50 (HOP-92) was 31.5 µM (inactive). The GI50 (SK-MEL-2) was 50.9 µM (inactive), the GI50 (MDA-MB-231) was 26.4 µM (inactive) and the GI50 (UACC-257) was 11.9 µM (inactive). The GI50 (T47D) was 63 µM (inactive).
